Test results taken from ChEMBL document CHEMBL5523684, “Development of a tetrahydroindazolone-based HDAC6 inhibitor with in-vivo anti-arthritic activity” (Bioorg Med Chem, 2024).

Assays:
[1] = molecular target: T1, Protein deacetylase HDAC6 (Homo sapiens, UniProt Q9UBN7); experiment: Inhibition of N-terminal GST-tagged human recombinant HDAC6 expressed in Spodoptera frugiperda incubated for 60 mins by fluorescence based analysis
T1 sequence (Q9UBN7 whole entry): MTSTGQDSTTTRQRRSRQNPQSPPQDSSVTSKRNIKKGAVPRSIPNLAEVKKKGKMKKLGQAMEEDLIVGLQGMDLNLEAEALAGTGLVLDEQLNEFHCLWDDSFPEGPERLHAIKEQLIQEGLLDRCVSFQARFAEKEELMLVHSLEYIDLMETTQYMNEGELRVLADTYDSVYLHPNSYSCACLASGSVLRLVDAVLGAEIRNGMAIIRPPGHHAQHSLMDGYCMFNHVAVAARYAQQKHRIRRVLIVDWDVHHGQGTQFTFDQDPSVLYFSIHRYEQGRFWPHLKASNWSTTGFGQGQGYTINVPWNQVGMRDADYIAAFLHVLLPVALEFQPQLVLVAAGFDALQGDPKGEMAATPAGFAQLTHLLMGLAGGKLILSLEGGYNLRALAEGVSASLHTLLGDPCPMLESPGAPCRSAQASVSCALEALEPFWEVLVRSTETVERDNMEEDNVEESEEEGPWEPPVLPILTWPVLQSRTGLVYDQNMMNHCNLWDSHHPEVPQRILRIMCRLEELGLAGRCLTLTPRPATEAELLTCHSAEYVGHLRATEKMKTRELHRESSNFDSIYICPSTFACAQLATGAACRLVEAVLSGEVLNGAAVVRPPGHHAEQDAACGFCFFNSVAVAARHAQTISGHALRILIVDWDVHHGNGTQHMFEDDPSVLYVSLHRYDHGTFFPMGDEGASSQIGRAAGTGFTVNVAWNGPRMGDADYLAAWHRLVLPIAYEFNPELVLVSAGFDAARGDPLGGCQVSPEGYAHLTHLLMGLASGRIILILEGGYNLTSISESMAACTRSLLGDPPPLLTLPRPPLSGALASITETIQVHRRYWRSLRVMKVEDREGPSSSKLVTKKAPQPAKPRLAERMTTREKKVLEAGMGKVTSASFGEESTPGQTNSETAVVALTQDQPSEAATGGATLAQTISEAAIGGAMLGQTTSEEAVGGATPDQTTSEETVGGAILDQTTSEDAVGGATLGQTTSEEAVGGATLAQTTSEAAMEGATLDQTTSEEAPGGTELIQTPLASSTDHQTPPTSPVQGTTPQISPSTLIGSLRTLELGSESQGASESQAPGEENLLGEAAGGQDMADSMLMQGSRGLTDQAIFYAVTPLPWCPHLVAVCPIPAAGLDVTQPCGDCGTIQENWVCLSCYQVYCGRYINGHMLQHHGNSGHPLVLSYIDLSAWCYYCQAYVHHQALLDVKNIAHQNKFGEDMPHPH

[2] = Tmax in mouse at 50 mg/kg, po; format: ADME, organism-based; settings: in vivo
[3] = AUClast in mouse at 10 mg/kg, iv; format: ADME, organism-based; settings: in vivo
[4] = AUC (0 to infinity) in dog at 0.5 mg/kg, iv; format: ADME, organism-based, Canis lupus familiaris; settings: in vivo
[5] = Half life in monkey at 10 mg/kg, po; format: ADME, organism-based, Macaca mulatta; settings: rhesus monkey, in vivo
[6] = Cmax in monkey at 10 mg/kg, po; format: ADME, organism-based, Macaca mulatta; settings: rhesus monkey, in vivo
[7] = Clearance in monkey at 0.5 mg/kg, iv; format: ADME, organism-based, Macaca mulatta; settings: rhesus monkey, in vivo
Rattus norvegicus = experiment: Antiarthritic activity against adjuvant-induced arthritis Lewis rat model assessed as improvement in arthritis symptoms at 50 mg/kg, po measured after 8 days in presence of methotrexate; format: functional; settings: time 8 day

| Tmax [2] [min] | AUC(0-t) [3] [ng·h/mL] | AUC(0-inf) [4] [ng·h/mL] | half-life [5] [min] | Cmax [6] [ng/mL] | CL [7] [mL/min/kg] | Structure (SMILES) | IC50 [1] [nM] | Activity (Rattus norvegicus) [%] |
| --- | --- | --- | --- | --- | --- | --- | --- | --- |
|  |  |  |  |  |  | O=C(NO)c1ccc(Cn2c3c(c4ccccc42)C(=O)CCC3)cc1 | 16 |  |
| 4.98 | 1200 | 458 | 57 | 137 | 55.7 | CC1(C)CC(=O)c2c(C(F)(F)F)nn(Cc3ccc(C(=O)NO)cc3)c2C1 |  | 97.9 |
